In US8476064B2, “Inhibition assay method and device for detection of antibiotics” (Charm Sciences, Inc., priority 2006, dated 2013):

Experiments:
B.st. spores [1] = experiment: Antibiotic detection test in spiked milk, borate/succinate culture of Example 6 (Table 4); format: cell-based, Bacillus (Geobacillus) Stearothermophilus; design: key to Color 1 / Color 2: Color result 1 and 2 is a negative result; Color result 1 and 2 is a negative result; 3 is a borderline result; 4 and 5 is a positive result; 4 and 5 is a positive result; conditions: for % Pos (Color 2) / Color 2: after 16 hours at room temperature; for % Pos (Color 1) / Color 1: immediately after test completion
Protocol: BCP/Borate/Succinate Solution was prepared by adding 3.8 grams of Borate and 6 grams Succinate to 100 mL of reverse osmosis/deionized water (RO/DI Water) in 125 mL flask. 50 milligrams of BCP was added to a 50 mL conical tube and 5 mL of Borate/Succinate solution was added to the 50 milligrams BCP and mixed.
To prepare media 5 grams glucose and 1 gram Mueller Hinton Broth was dissolved in 100 mL RO/DI Water. 1.2 mL of a 0.01 mg/mL solution of trimethoprim in RO/DI Water was prepared and added to the media. A 20 mL of BCP/Borate/Succinate was added to the media and the media was sterile filtered through a 0.45 micron filter and then cooled to 4 degrees C.
Agar was prepared by combining 0.3 grams Difco Bacto-Agar (Item #0140-01), 0.225 NaCl and 17.485 RO/DI Water. The mixture was heated to 95° C. and then removed from the heat and allowed to cool to 75° C. Next 6 mL of media (prepared as described above with BCP/Tris) was added to the agar and mixed for 5 minutes. The mixture was cooled to 57° C. and 1 mL spore solution (concentration of 1 billion cfu/mL) was added and mixed together for 5 minutes. 0.200 mL was dispensed into the bottom of each of the vials.
In test operation 200 microliters of various milk sample, spiked with known concentrations of antibiotics, were pipetted into test vials and incubated for the prescribed time (in this test 2 hours 10 minutes) and prescribed temperature (64 degrees C.+/−2 degrees C.). Incubation was in the Charm I Inctronic incubator. Results were recorded immediately after test completion (Color 1) and after being left at room temperature for 16 hours (Color 2). Results listed are in parts per billion (ppb). 4 samples were run at each concentrations except for raw negative milk (16 samples) and 3 ppb pen G (2 samples) and amoxicillin (2 samples). Abbreviations are penicillin G (PenG); sulfamethazine (SMZ); sulfadimethoxine (SDM); tylosin (TY); gentamicin (G); oxytetracycline (OT); pirlimycin (Pirl); amoxicillin (Amox); ampicillin (Amp); cloxacillin (Clox); ceftiofur sodium (Ceft); cephaprin (Ceph); tilmicosin (Til); sulfadoxine (SDN); neomycin (Neo). Color result 1 and 2 is a negative result, 3 is a borderline result and 4 and 5 is a positive result.

B.st. spores [2] = experiment: Single service kidney swab microbial growth inhibition test, culture of Example 1, with or without beta-lactam receptor; format: cell-based, Bacillus (Geobacillus) Stearothermophilus; conditions: for test result With receptor: with 1 U receptor
Protocol: A Bromocresol purple (BCP)/Tris Solution was prepared by combining 25 mL of a Trizma Base solution (TBS), the solution including 2.5 grams Trizma Base in 100 mL of reverse osmosis/deionized water (RO/DI Water), with 100 milligrams of BCP and mixing well. The media was prepared by dissolving 5 grams glucose and 1 gram Mueller Hinton Broth (Mueller Hinton broth includes, in purified filtered water, 2 grams per liter (g/L) beef extract, 17.5 g/L casein hydrolysate acid and 1.5 g/L starch, pH 7.3 at 25 degrees C) into 100 mL RO/DI Water. Then a 0.01 mg/mL solution of trimethoprim in RO/DI Water was prepared and 1.2 mL was added to the media. Next 20 mL of BCP/Tris (sterile filtered through 0.45 micron filter) was added to the media.
Agar was prepared by combining 0.3 grams Difco Bacto-Agar (Item #0140-01), 0.225 NaCl and 17.485 RO/DI Water. The mixture was heated to 95° C. and then removed from the heat and allowed to cool to 75° C. Next 6 mL of media (prepared as described above with BCP/Tris) was added to the agar and mixed for 5 minutes. The mixture was cooled to 57° C. and 1 mL spore solution (concentration of 1 billion cfu/mL) was added and mixed together for 5 minutes. 0.200 mL was dispensed into the bottom of a vial 4.
The dispensed vial 4 was prepared as described in example 1. An extractant was prepared by adding 4.8 grams of 47.2% Trizma Base and 52.5% Potassium Phosphate Monobasic to 1000 mL RO/DI Water (pH should be 7.5+/−0.10). The extractant was sealed within the niblet 5 and the niblet was added to the vial 4. The vial 4 was heat sealed with foil.
The single service kidney swab procedure was run by first making a 3 inch incision into kidney. The swab 1 was then withdrawn from the test unit, the test unit in the form of a POCKETSWAB, by gently pulling and twisting the handle 2 out of the test unit body 7. The swab 1 was then inserted into the incision of the kidney and allowed to sit for 15 minutes to allow full absorption of liquid into the swab 1. The swab 1 was reinserted by gently pushing down and twisting to engage the threads 6 and screwing the handle down slowly about halfway. The swab tip 3 punctured the seals 12, 13 & 14 immersing the swab tip 3 into the extractant within the niblet 5 where it sat for 2 minutes. The swab 1 was then screwed down all the way. After shaking and tapping the vial 4 to get residual liquid into the bottom of the vial 4 and in contact with the culture 15, we placed the vial 4 into a heat block set at 67° C. and incubated for 2.5 hours (if urine is tested instead of kidney, incubate for 4 hours).
Culture is prepared as in Example 1. Prior to dispensing 200 microliters into the vial 4, antibiotic binder is prepared, in this example an antibiotic binder from the cell wall of B.st., also known as receptor. Varying amounts of inhibitory receptor units are mixed into the culture. Receptor is defined as protein removed from cellular membrane of B.st. A receptor unit (1 U) is the amount of receptor that will, in the test, reverse the culture growth inhibition of 12.5 ppb of penicillin G.
Results in Table 1 are from tests using the culture described in Example 1 and with the addition of receptor added into rinse buffer (rinse buffer composition is 4.8 grams of 47.2% Trizma Base and 52.5% Potassium Phosphate Monobasic to 1000 mL RO/DI Water) at 0, 0.3 units (U), 1.0 U, 2.0 U, 5.0 Upper test. Sample contained the following amounts of penicillin G: 0, 5 parts per billion (ppb), 10 ppb, 12.5 ppb, 25 ppb and 50 ppb. As shown, 1.0 U was able to reverse the result of a 12.5 ppb penicillin G sample. Results are either positive (+) or negative (−).
Results are either positive (+), negative (−) or borderline between positive and negative (+/−). Abbreviations are penicillin G (PenG); sulfamethazine (SMZ); sulfadimethoxine (SDM); tylosin (TY); gentamicin (G); oxytetracycline (OT). […]

[3] = drug concentration 400 (unit not given)
[4] = drug concentration 600 (unit not given)
[5] = drug concentration 800 (unit not given)
[6] = drug concentration 300 (unit not given)
[7] = drug concentration 500 (unit not given)
[8] = drug concentration 250 (unit not given)
[9] = drug concentration 750 (unit not given)

In the case of gentamicin, the “% Pos (Color 2)” value (B.st. spores [1]; milk spiked at 300 ppb) is reported as 100%, the “Color 2” value (B.st. spores [1]; milk spiked at 300 ppb) is reported as 4 and the “% Pos (Color 1)” value (B.st. spores [1]; milk spiked at 300 ppb) is reported as 100%. The “Color 1” value (B.st. spores [1]; milk spiked at 300 ppb) was 4, the “% Pos (Color 2)” value (B.st. spores [1]; milk spiked at 400 ppb) was 100% and the “Color 2” value (B.st. spores [1]; milk spiked at 400 ppb) was 5. For the same compound, the “% Pos (Color 1)” value (B.st. spores [1]; milk spiked at 400 ppb) was 100%, the “Color 1” value (B.st. spores [1]; milk spiked at 400 ppb) was 5 and the “test result w/out receptor” value (B.st. spores [2]; [3]) was “+/−”. The “test result With receptor” value (B.st. spores [2]; [3]) was “+/−”, the “test result w/out receptor” value (B.st. spores [2]; [4]) was “+/−” and the “test result With receptor” value (B.st. spores [2]; [4]) was “+/−”. For the same compound, the “test result w/out receptor” value (B.st. spores [2]; [5]) was “+/−” and the “test result With receptor” value (B.st. spores [2]; [5]) was “+/−”.

`Cc1cc(C)nc(NS(=O)(=O)c2ccc(N)cc2)n1` [SMZ, sulfamethazine] was tested, and the “% Pos (Color 2)” value (B.st. spores [1]; milk spiked at 100 ppb) was 100%, the “Color 2” value (B.st. spores [1]; milk spiked at 100 ppb) was 5 and the “% Pos (Color 1)” value (B.st. spores [1]; milk spiked at 100 ppb) was 100%. The “Color 1” value (B.st. spores [1]; milk spiked at 100 ppb) was 5, the “% Pos (Color 2)” value (B.st. spores [1]; milk spiked at 200 ppb) was 100% and the “Color 2” value (B.st. spores [1]; milk spiked at 200 ppb) was 4. The “% Pos (Color 1)” value (B.st. spores [1]; milk spiked at 200 ppb) was 100%, the “Color 1” value (B.st. spores [1]; milk spiked at 200 ppb) was 5 and the “test result w/out receptor” value (B.st. spores [2]; drug 50 ppb) was “−”. The “test result With receptor” value (B.st. spores [2]; drug 50 ppb) was “−”, the “test result w/out receptor” value (B.st. spores [2]; drug 100 ppb) was “+/−” and the “test result With receptor” value (B.st. spores [2]; drug 100 ppb) was “+/−”. For the same compound, the “test result w/out receptor” value (B.st. spores [2]; drug 200 ppb) was “+/−” and the “test result With receptor” value (B.st. spores [2]; drug 200 ppb) was “+/−”.

In the case of `CC[C@H]1OC(=O)C[C@@H](O)[C@H](C)[C@@H](O[C@@H]2O[C@H](C)[C@@H](O[C@H]3C[C@@](C)(O)[C@@H](O)[C@H](C)O3)[C@H](N(C)C)[C@H]2O)[C@@H](CC=O)C[C@@H](C)C(=O)/C=C/C(C)=C/[C@@H]1CO[C@@H]1O[C@H](C)[C@@H](O)[C@@H](OC)[C@H]1OC` [TY, tylosin], the “% Pos (Color 2)” value (B.st. spores [1]; milk spiked at 40 ppb) is reported as 100%, the “Color 2” value (B.st. spores [1]; milk spiked at 40 ppb) is reported as 4 and the “% Pos (Color 1)” value (B.st. spores [1]; milk spiked at 40 ppb) is reported as 100%. For the same compound, the “Color 1” value (B.st. spores [1]; milk spiked at 40 ppb) was 5, the “% Pos (Color 2)” value (B.st. spores [1]; milk spiked at 50 ppb) was 100% and the “Color 2” value (B.st. spores [1]; milk spiked at 50 ppb) was 5. The “% Pos (Color 1)” value (B.st. spores [1]; milk spiked at 50 ppb) was 100%, the “Color 1” value (B.st. spores [1]; milk spiked at 50 ppb) was 5 and the “test result w/out receptor” value (B.st. spores [2]; [6]) was “+/−”. For the same compound, the “test result With receptor” value (B.st. spores [2]; [6]) was “+/−”, the “test result w/out receptor” value (B.st. spores [2]; [7]) was “+” and the “test result With receptor” value (B.st. spores [2]; [7]) was “+”. For the same compound, the “test result w/out receptor” value (B.st. spores [2]; [5]) was “+” and the “test result With receptor” value (B.st. spores [2]; [5]) was “+”.

With `CN(C)[C@@H]1C(O)=C(C(N)=O)C(=O)[C@@]2(O)C(O)=C3C(=O)c4c(O)cccc4[C@@](C)(O)[C@H]3[C@H](O)[C@@H]12` [OT, oxytetracycline] the “% Pos (Color 2)” value (B.st. spores [1]; milk spiked at 200 ppb) was 0%, the “Color 2” value (B.st. spores [1]; milk spiked at 200 ppb) was 2 and the “% Pos (Color 1)” value (B.st. spores [1]; milk spiked at 200 ppb) was 0%. The “Color 1” value (B.st. spores [1]; milk spiked at 200 ppb) was 2, the “% Pos (Color 2)” value (B.st. spores [1]; milk spiked at 300 ppb) was 100% and the “Color 2” value (B.st. spores [1]; milk spiked at 300 ppb) was 4. For the same compound, the “% Pos (Color 1)” value (B.st. spores [1]; milk spiked at 300 ppb) was 100%, the “Color 1” value (B.st. spores [1]; milk spiked at 300 ppb) was 5 and the “test result w/out receptor” value (B.st. spores [2]; [8]) was “+”. The “test result With receptor” value (B.st. spores [2]; [8]) was “+”, the “test result w/out receptor” value (B.st. spores [2]; [7]) was “+” and the “test result With receptor” value (B.st. spores [2]; [7]) was “+”. For the same compound, the “test result w/out receptor” value (B.st. spores [2]; [9]) was “+” and the “test result With receptor” value (B.st. spores [2]; [9]) was “+”.

With `COc1cc(NS(=O)(=O)c2ccc(N)cc2)nc(OC)n1` [SDM, sulfadimethoxine] the “% Pos (Color 2)” value (B.st. spores [1]; milk spiked at 25 ppb) was 100%, the “Color 2” value (B.st. spores [1]; milk spiked at 25 ppb) was 5 and the “% Pos (Color 1)” value (B.st. spores [1]; milk spiked at 25 ppb) was 100%. For the same compound, the “Color 1” value (B.st. spores [1]; milk spiked at 25 ppb) was 4, the “% Pos (Color 2)” value (B.st. spores [1]; milk spiked at 50 ppb) was 100% and the “Color 2” value (B.st. spores [1]; milk spiked at 50 ppb) was 5. For the same compound, the “% Pos (Color 1)” value (B.st. spores [1]; milk spiked at 50 ppb) was 100%, the “Color 1” value (B.st. spores [1]; milk spiked at 50 ppb) was 5 and the “test result w/out receptor” value (B.st. spores [2]; drug 50 ppb) was “+/−”. The “test result With receptor” value (B.st. spores [2]; drug 50 ppb) was “+/−”, the “test result w/out receptor” value (B.st. spores [2]; drug 100 ppb) was “+/−” and the “test result With receptor” value (B.st. spores [2]; drug 100 ppb) was “+/−”. For the same compound, the “test result w/out receptor” value (B.st. spores [2]; drug 200 ppb) was “+” and the “test result With receptor” value (B.st. spores [2]; drug 200 ppb) was “+”.
